Like-named read-outs stand apart in the source and are kept apart here.
Tests used:
FKBP52 = target: T1, FKBP52 (Homo sapiens, UniProt Q02790); assay: Fluorescence polarization binding assay, FK1-domain of FKBP52WT with tracer F2 (selectivity FKBP51 vs. FKBP52); details: selectivity factor over FKBP52
T1 construct: Purified FK1-domains of FKBP51WT (4.5 nM) with F4 (3 nM), FKBP52WT (400 nM) with F2 (20 nM); implied by Ni-NTA purification) (N); made in house; host or cells: E. coli BL21(DE3)pLysS
T1 sequence (Q02790 50-138 limits assumed): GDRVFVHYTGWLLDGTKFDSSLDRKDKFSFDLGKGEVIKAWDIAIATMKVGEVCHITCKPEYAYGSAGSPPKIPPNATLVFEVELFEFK
How it was run: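 Compounds titrated against FK1 domain of FKBP52 WT with fluorescent tracer F2, in duplicate; competition curves fitted to four-parameter logistic for IC50. Ki derived from exact competitive-binding equation using tracer Kd; selectivity expressed as Ki(FKBP51)/Ki(FKBP52).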

FKBP51 = target: T2, FKBP51 (Homo sapiens, UniProt Q13451); assay: Fluorescence polarization binding assay, FK1-domain of FKBP51WT with tracer F4; parameters: Purified FK1-domains of FKBP51WT (4.5 nM) with F4 (3 nM), FKBP52WT (400 nM) with F2 (20 nM); made in house; host or cells: E. coli BL21(DE3)pLysS; details: read-out: Affinity(Ki) for FKBP51
T2 sequence (Q13451 42-130 limits assumed): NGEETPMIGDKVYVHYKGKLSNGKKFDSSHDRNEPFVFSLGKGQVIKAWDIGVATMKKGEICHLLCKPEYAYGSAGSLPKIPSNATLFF
How it was run: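 Competitive fluorescence polarization with tracer F4 and FKBP51 FK1 domain (wild type), compounds titrated by serial dilution from DMSO stock, run in duplicate. IC50 from four-parameter logistic fit; inhibition constants from an exact competitive-binding equation using tracer and inhibitor Kd values.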

[1] = FKBP52WT (400 nM) with F2 (20 nM), A series
[2] = FK1-domain of FKBP51WT (4.5 nM) with F4 (3 nM), A series

Row | Ki(FKBP51)/Ki(FKBP52) (FKBP52; compounds B01-C25) | Ki (FKBP51; compounds B01-C25) [µM] | Ki(FKBP51)/Ki(FKBP52) (FKBP52; [1]) | Ki (FKBP51; [2]) [µM] | SMILES
1 | ++ (>50 ++) | 10 to 50 | – | – | COc1cc([C@@H](C(=O)N2CCCC[C@H]2C(=O)NC2(C(N)=O)CC2)C2CCCCC2)cc(OC)c1OC [Compound B26, (S)-N-(1-carbamoylcyclopropyl)-1-((S)-2-cyclohexyl-2-(3,4,5-trimethoxyphenyl)acetyl)piperidine-2-carboxamide]
2 | – | – | +++ (>500 +++) | < 0.1 | COc1ccc(CCC(OC(=O)C2CCCCN2C(=O)[C@H](c2cc(OC)c(OC)c(OC)c2)[C@@H]2C=CCCC2)c2cccc(OCCN3CCOCC3)c2)cc1OC (stereo in doubt) [Compound A12, (S)-(R)-3-(3,4-Dimethoxyphenyl)-1-(3-(2-morpholinoethoxy)phenyl)propyl-1-((S)-2-((S)-cyclohex-2-en-1-yl)-2-(3,4,5-trimethoxyphenyl)acetyl)piperidine-2-carboxylate]
3 | ++ (>50 ++) | 1 to 10 | – | – | COc1cc([C@@H](C(=O)N2CCCC[C@H]2C(=O)N[C@@H](Cc2ccccc2)C(N)=O)C2CCCCC2)cc(OC)c1OC [Compound B05, (S)-N-((S)-1-amino-1-oxo-3-phenylpropan-2-yl)-1-((S)-2-cyclohexyl-2-(3,4,5-trimethoxyphenyl)acetyl)piperidine-2-carboxamide]
4 | ++ (>50 ++) | 1 to 10 | – | – | COc1cc([C@@H](C(=O)N2CCCC[C@H]2C(=O)OCCCOCc2ccccc2)C2CCCCC2)cc(OC)c1OC [Compound C21, (S)-3-(benzyloxy)propyl-1-((S)-2-cyclohexyl-2-(3,4,5-trimethoxyphenyl)acetyl) piperidine-2-carboxylate]
5 | ++ (>50 ++) | 1 to 10 | – | – | COc1cc([C@@H](C(=O)N2CCCC[C@H]2C(=O)OCCOCc2ccccc2)C2CCCCC2)cc(OC)c1OC [Compound C19, (S)-2-(benzyloxy)ethyl-1-((S)-2-cyclohexyl-2-(3,4,5-trimethoxyphenyl)acetyl) piperidine-2-carboxylate]
6 | ++ (>50 ++) | 1 to 10 | – | – | COc1cc([C@@H](C(=O)N2CCCC[C@H]2C(=O)NC2(C(N)=O)CCC2)C2CCCCC2)cc(OC)c1OC [Compound B27, (S)-N-(1-carbamoylcyclobutyl)-1-((S)-2-cyclohexyl-2-(3,4,5-trimethoxyphenyl)acetyl)piperidine-2-carboxamide]
7 | – | – | + (>5 +) | 10 to 50 | C=CC[C@H](C(=O)N1CC=CC[C@H]1C(=O)O[C@H](CCc1ccc(OC)c(OC)c1)c1cccc(OCCN2CCOCC2)c1)c1cc(OC)c(OC)c(OC)c1 [Compound A06]
8 | ++ (>50 ++) | 1 to 10 | – | – | COc1cc([C@@H](C(=O)N2CCCC[C@H]2C(=O)N[C@@H](CC(C)C)C(N)=O)C2CCCCC2)cc(OC)c1OC [Compound B30, (S)-N-((S)-1-amino-4-methyl-1-oxopentan-2-yl)-1-((S)-2-cyclohexyl-2-(3,4,5-trimethoxyphenyl)acetyl)piperidine-2-carboxamide]
9 | + (>5 +) | 10 to 50 | – | – | COc1cc([C@@H](C(=O)N2CCCC[C@H]2C(=O)N[C@@H](Cc2c[nH]cn2)C(N)=O)C2CCCCC2)cc(OC)c1OC [Compound B35, (S)-N-((S)-1-amino-3-(1H-imidazol-4-yl)-1-oxopropan-2-yl)-1-((S)-2-cyclohexyl-2-(3,4,5-trimethoxyphenyl)acetyl)piperidine-2-carboxamide]
10 | ++ (>50 ++) | 10 to 50 | – | – | C=CCOC(=O)[C@@H]1CCCCN1C(=O)[C@H](c1cc(OC)c(OC)c(OC)c1)C1CCCCC1 [Compound C17, (S)-allyl-1-((S)-2-cyclohexyl-2-(3,4,5-trimethoxyphenyl)acetyl)piperidine-2-carboxylate]
11 | + (>5 +) | 10 to 50 | – | – | COc1cc([C@@H](C(=O)N2CCCC[C@H]2C(=O)NCC(N)=O)C2CCCCC2)cc(OC)c1OC [Compound B10, (S)-N-(2-amino-2-oxoethyl)-1-((S)-2-cyclohexyl-2-(3,4,5-trimethoxyphenyl)acetyl)piperidine-2-carboxamide]
12 | ++ (>50 ++) | 10 to 50 | – | – | COc1cc([C@@H](C(=O)N2CCCC[C@H]2C(=O)NC2(C(N)=O)CCOCC2)C2CCCCC2)cc(OC)c1OC [Compound B32]
13 | – | – | +++ (>500 +++) | < 0.1 | COc1cc([C@@H](C(=O)N2CCCC[C@H]2C(=O)OC(CCCc2cccnc2)CCCc2cccnc2)[C@@H]2C=CCCC2)cc(OC)c1OC [Compound A13, (S)-1,7-Di(pyridin-3-yl)heptan-4-yl-1-((S)-2-((S)-cyclohex-2-en-1-yl)-2-(3,4,5-trimethoxyphenyl)acetyl)piperidine-2-carboxylate]
14 | ++ (>50 ++) | 10 to 50 | – | – | CCC(CC)OC(=O)[C@@H]1CCCCN1C(=O)[C@H](c1cc(OC)c(OC)c(OC)c1)C1CCCCC1 [Compound C09, (S)-pentan-3-yl-1-((S)-2-cyclohexyl-2-(3,4,5-trimethoxyphenyl)acetyl)piperidine-2-carboxylate]
15 | +++ (>500 +++) | 1 to 10 | – | – | COc1cc([C@@H](C(=O)N2CCCC[C@H]2C(=O)NC(C)(C)CC(N)=O)C2CCCCC2)cc(OC)c1OC [Compound B25, (S)-N-(4-amino-2-methyl-4-oxobutan-2-yl)-1-((S)-2-cyclohexyl-2-(3,4,5-trimethoxyphenyl)acetyl)piperidine-2-carboxamide]
16 | – | – | +++ (>500 +++) | 1 to 10 | COc1ccc(CC[C@@H](OC(=O)[C@@H]2CCCCN2C(=O)[C@H](c2cccc(F)c2)C2CCCCC2)c2cccc(OCC(=O)O)c2)cc1OC [Compound A36, 2-(3-((R)-1-(((S)-1-((S)-2-cyclohexyl-2-(3-fluorophenyl)acetyl)piperidine-2-carbonyl)oxy)-3-(3,4-dimethoxyphenyl)propyl)phenoxy)acetic acid]
17 | ++ (>50 ++) | 1 to 10 | – | – | COc1cc([C@@H](C(=O)N2CCCC[C@H]2C(=O)N[C@@H](CO)C(N)=O)C2CCCCC2)cc(OC)c1OC [Compound B22, (S)-N-((S)-1-amino-3-hydroxy-1-oxopropan-2-yl)-1-((S)-2-cyclohexyl-2-(3,4,5-trimethoxyphenyl)acetyl)piperidine-2-carboxamide]
18 | – | – | +++ (>500 +++) | < 0.1 | COc1ccc(CCC(OC(=O)C2CCCN2C(=O)[C@H](c2cc(OC)c(OC)c(OC)c2)C2C=CCCC2)c2cccc(OCCN3CCOCC3)c2)cc1OC (stereo in doubt) [Compound A15, (S)-(R)-3-(3,4-dimethoxyphenyl)-1-(3-(2-morpholinoethoxy)phenyl)propyl-1-((S)-2-((R)-cyclohex-2-en-1-yl)-2-(3,4,5-trimethoxyphenyl)acetyl)pyrrolidine-2-carboxylate]
19 | +++ (>500 +++) | 1 to 10 | – | – | COc1cc([C@@H](C(=O)N2CCCC[C@H]2C(=O)NC(C)(C)C(N)=O)C2CCCCC2)cc(OC)c1OC [Compound B11, (S)-N-(1-amino-2-methyl-1-oxopropan-2-yl)-1-((S)-2-cyclohexyl-2-(3,4,5-trimethoxyphenyl)acetyl)piperidine-2-carboxamide]
20 | ++ (>50 ++) | 1 to 10 | – | – | CC[C@H](C)[C@H](NC(=O)[C@@H]1CCCCN1C(=O)[C@H](c1cc(OC)c(OC)c(OC)c1)C1CCCCC1)C(N)=O [Compound B14, (S)-N-((2S,3S)-1-amino-3-methyl-1-oxopentan-2-yl)-1-((S)-2-cyclohexyl-2-(3,4,5-trimethoxyphenyl)acetyl)piperidine-2-carboxamide]
21 | ++ (>50 ++) | 1 to 10 | – | – | COCCOC(=O)[C@@H]1CCCCN1C(=O)[C@H](c1cc(OC)c(OC)c(OC)c1)C1CCCCC1 [Compound C18, (S)-2-methoxyethyl-1-((S)-2-cyclohexyl-2-(3,4,5-trimethoxyphenyl)acetyl) piperidine-2-carboxylate]
22 | – | – | + (>5 +) | 10 to 50 | COc1ccc(CCC(OC(=O)[C@@H]2CCCCN2C(=O)C(NC(=O)c2ccccc2O)C2CCCCC2)c2cccc(OCC(=O)O)c2)cc1OC (stereo partly drawn) [Compound A24, 2-(3-(1-(((2S)-1-(2-cyclohexyl-2-(2-hydroxybenzamido)acetyl)piperidine-2-carbonyl)oxy)-3-(3,4-dimethoxyphenyl)propyl)phenoxy)acetic acid]
23 | ++ (>50 ++) | 1 to 10 | – | – | CC[C@H](NC(=O)[C@@H]1CCCCN1C(=O)[C@H](c1cc(OC)c(OC)c(OC)c1)C1CCCCC1)C(N)=O [Compound B12, (S)-N-((S)-1-amino-1-oxobutan-2-yl)-1-((S)-2-cyclohexyl-2-(3,4,5-trimethoxyphenyl)acetyl)piperidine-2-carboxamide]
